{"source": "patent US20250025443A1", "about": "“COMPOUNDS AND METHODS FOR TREATING CORONA VIRUSES” (CLEAR CREEK BIO, INC., priority 2021, published 2025)", "data": [{"molecular_target": "SARS-CoV-2 Papain-Like Protease (PLpro) (Severe acute respiratory syndrome coronavirus 2 (2019-nCoV) (SARS-CoV-2), UniProt P0DTD1)", "experiment": "biochemical", "conditions": "PLpro IC50, SARS-CoV-2 PLpro enzymatic fluorescence assay", "units": {"IC50": "nM"}, "values": [{"smiles": "Cc1cc2c(CCN)c[nH]c2cc1C(=O)NC1(c2cccc3ccccc23)CC1", "note": "[Compound 292, 3-(2-Aminoethyl)-5-methyl-N-(1-(naphthalen-1-yl)cyclopropyl)-1H-indole-6-carboxamide]", "IC50": "100 to 1000"}]}, {"molecular_target": "SARS-CoV-2 Papain-Like Protease (PLpro) (Severe acute respiratory syndrome coronavirus 2 (2019-nCoV) (SARS-CoV-2), UniProt P0DTD1)", "experiment": "biochemical", "conditions": "PLpro enzymatic fluorescence assay; class symbols; read-out: PLpro IC50", "units": {"IC50": "nM"}, "values": [{"smiles": "Cc1ccc(OC[C@@H]2CCN2C)cc1C(=O)NC1(c2cc(-c3ccc(CO)s3)cc3ncccc23)CC1", "note": "[Compound 753, (S)-N-(1-(7-(5-(Hydroxymethyl)thiophen-2-yl)quinolin-5-yl)cyclopropyl)-2-methyl-5-((1-methylazetidin-2-yl)methoxy)benzamide]", "IC50": "< 100"}, {"smiles": "Cc1ccc(OC[C@@H]2CCN2C)cc1C(=O)NC1(c2cc(C#CC(F)(F)F)cc3ncccc23)CC1", "note": "[Compound 803, (S)-2-Methyl-5-((1-methylazetidin-2-yl)methoxy)-N-(1-(7-(3,3,3-trifluoroprop-1-yn-1-yl)quinolin-5-yl)cyclopropyl)benzamide]", "IC50": "< 100"}, {"smiles": "Cc1ccc(OCC2CN(C)C2)cc1C(=O)NC1(c2cccc3ccccc23)CC1", "note": "[Compound 427, 2-Methyl-5-((1-methylazetidin-3-yl)methoxy)-N-(1-(naphthalen-1-yl)cyclopropyl)benzamide]", "IC50": "< 100"}, {"smiles": "Cc1ccc(OC[C@@H]2CCN2C)cc1C(=O)NC1(c2cc(-c3ccc(F)cc3)cc3ncccc23)CC1", "note": "[Compound 678, (S)—N-(1-(7-(4-Fluorophenyl)quinolin-5-yl)cyclopropyl)-2-methyl-5-((1-methylazetidin-2-yl)methoxy)benzamide]", "IC50": "< 100"}, {"smiles": "Cc1ncc(-c2cc(C3(NC(=O)c4cc(OC[C@@H]5CCN5)ccc4C)CC3)c3cccnc3c2)o1", "note": "[Compound 698, (S)-5-(Azetidin-2-ylmethoxy)-2-methyl-N-(1-(7-(2-methyloxazol-5-yl)quinolin-5-yl)cyclopropyl)benzamide]", "IC50": "< 100"}, {"smiles": "Cc1cc(C2(NC(=O)c3cc(OC[C@@H]4CCN4C)ccc3C)CC2)c2ccc(C)nc2c1", "note": "[Compound 802, (S)-N-(1-(2,7-Dimethylquinolin-5-yl)cyclopropyl)-2-methyl-5-((1-methylazetidin-2-yl)methoxy)benzamide]", "IC50": "< 100"}, {"smiles": "COc1cc(C2(NC(=O)c3cc(OCc4ccccn4)ccc3C)CC2)c2cccnc2c1", "note": "[Compound 562, N-(1-(7-Methoxyquinolin-5-yl)cyclopropyl)-2-methyl-5-(pyridin-2-ylmethoxy)benzamide]", "IC50": "100 to 1000"}, {"smiles": "COc1cc(C2(NC(=O)c3cc(O[C@H]4CC[C@@H]5CNCCN5C4)ccc3C)CC2)c2cccnc2c1", "note": "[Compound 790]", "IC50": "< 100"}, {"smiles": "Cc1cc(-c2cc(C3(NC(=O)c4cc(OC[C@@H]5CCN5)ccc4C)CC3)c3cccnc3c2)cs1", "note": "[Compound 640, (S)-5-(Azetidin-2-ylmethoxy)-2-methyl-N-(1-(7-(5-methylthiophen-3-yl)quinolin-5-yl)cyclopropyl)benzamide]", "IC50": "< 100"}, {"smiles": "CC(c1cccc2ccccc12)N1CCc2ccc([N+](=O)[O-])cc2C1", "note": "(stereo not drawn) [Compound 127, 2-(1-(Naphthalen-1-yl)ethyl)-7-nitro-1,2,3,4-tetrahydroisoquinoline]", "IC50": "> 5000"}, {"smiles": "Cc1ccc(OCC2CCN2C)cc1C(=O)NC1(c2c3ccccc3cc3ccccc23)CC1", "note": "(stereo not drawn) [Compound 507, N-(1-(Anthracen-9-yl)cyclopropyl)-2-methyl-5-((1-methylazetidin-2-yl)methoxy)benzamide]", "IC50": "100 to 1000"}]}, {"molecular_target": "SARS-CoV-2 Papain-Like Protease (PLpro) (Severe acute respiratory syndrome coronavirus 2 (2019-nCoV) (SARS-CoV-2), UniProt P0DTD1)", "experiment": "biochemical", "conditions": "SARS-CoV-2 PLpro enzymatic fluorescence assay; read-out: PLpro IC50", "units": {"IC50": "nM"}, "values": [{"smiles": "COc1cc(C2(NC(=O)c3cc(OCC(C)N)ccc3C)CC2)c2ccccc2c1", "note": "(stereo not drawn) [Compound 445, 5-(2-Aminopropoxy)-N-(1-(3-methoxynaphthalen-1-yl)cyclopropyl)-2-methylbenzamide]", "IC50": "< 100"}, {"smiles": "Cc1ccc(OCC2CCN2C)cc1C(=O)NC1(c2cc(O)cc3ccccc23)CC1", "note": "(stereo not drawn) [Compound 433, N-(1-(3-Hydroxynaphthalen-1-yl)cyclopropyl)-2-methyl-5-((1-methylazetidin-2-yl)methoxy)benzamide]", "IC50": "< 100"}, {"smiles": "Cc1ccc(CCC(N)=O)cc1C(=O)NC1(c2cccc3ccccc23)CC1", "note": "[Compound 452, 5-(3-Amino-3-oxopropyl)-2-methyl-N-(1-(naphthalen-1-yl)cyclopropyl)benzamide]", "IC50": "100 to 1000"}, {"smiles": "Cc1cc2cn(C3CNC3)nc2cc1C(=O)NC1(c2cccc3ccccc23)CC1", "note": "[Compound 305, 2-(Azetidin-3-yl)-5-methyl-N-(1-(naphthalen-1-yl)cyclopropyl)-2H-indazole-6-carboxamide]", "IC50": "100 to 1000"}, {"smiles": "Cc1ccc(N)cc1C(=O)NC1(c2cccc3ccccc23)COC1", "note": "[Compound 191, 5-Amino-2-methyl-N-(3-(naphthalen-1-yl)oxetan-3-yl)benzamide]", "IC50": "100 to 1000"}, {"smiles": "Cc1ccc2c(C3(NC(=O)c4cc(OC[C@@H]5CCN5C)ccc4C)CC3)cccc2n1", "note": "[Compound 547, (S)-2-Methyl-5-((1-methylazetidin-2-yl)methoxy)-N-(1-(2-methylquinolin-5-yl)cyclopropyl)benzamide]", "IC50": "< 100"}, {"smiles": "Cc1cc2cc[nH]c2cc1C(=O)N[C@H](C)c1cccc2ccccc12", "note": "[Compound 153, (R)-5-Methyl-N-(1-(naphthalen-1-yl)ethyl)-1H-indole-6-carboxamide]", "IC50": "1000 to 5000"}, {"smiles": "Cc1ccc(OCCNCc2ccccc2)cc1C(=O)NC1(c2cccc3ccccc23)CC1", "note": "[Compound 360, 5-(2-(Benzylamino)ethoxy)-2-methyl-N-(1-(naphthalen-1-yl)cyclopropyl)benzamide]", "IC50": "< 100"}, {"smiles": "Cc1ccc(OCC2CCCN2C)cc1C(=O)NC1(c2cccc3ccccc23)CC1", "note": "(stereo not drawn) [Compound 283, 2-Methyl-5-((1-methylpyrrolidin-2-yl)methoxy)-N-(1-(naphthalen-1-yl)cyclopropyl)benzamide]", "IC50": "< 100"}, {"smiles": "Cc1ccc(OCC2CCN2C)cc1C(=O)NC1(c2cc(NC(=O)OC(C)(C)C)cc3ccccc23)CC1", "note": "(stereo not drawn) [Compound 482, tert-Butyl(4-(1-(2-methyl-5-((1-methylazetidin-2-yl)methoxy)benzamido)cyclopropyl)naphthalen-2-yl)carbamate]", "IC50": "< 100"}, {"smiles": "Cc1ccc(OCCN2CC(F)C2)cc1C(=O)NC1(c2cccc3ccccc23)CC1", "note": "[Compound 300, 5-(2-(3-Fluoroazetidin-1-yl)ethoxy)-2-methyl-N-(1-(naphthalen-1-yl)cyclopropyl)benzamide]", "IC50": "< 100"}, {"smiles": "Cc1ccc(NC2CNC2)cc1C(=O)NCc1cccc(-c2ccc(CN3CCCC3)s2)c1", "note": "[Compound 120, 5-(Azetidin-3-ylamino)-2-methyl-N-(3-(5-(pyrrolidin-1-ylmethyl)thiophen-2-yl)benzyl)benzamide]", "IC50": "> 5000"}, {"smiles": "Cc1ccc(Nc2cn[nH]c2)cc1C(=O)N[C@H](C)c1cccc(-c2ccc(CN[C@H]3CC[C@@H](O)C3)s2)c1", "note": "[Compound 140, 5-((1H-Pyrazol-4-yl)amino)-N-((R)-1-(3-(5-((((1S,3R)-3-hydroxycyclopentyl)amino)methyl)thiophen-2-yl)phenyl)ethyl)-2-methylbenzamide]", "IC50": "1000 to 5000"}, {"smiles": "CC(c1cccc2ncccc12)N1CCC(C(=O)NCc2cccc(F)c2)CC1", "note": "(stereo not drawn) [Compound 549, N-(3-Fluorobenzyl)-1-(1-(quinolin-5-yl)ethyl)piperidine-4-carboxamide]", "IC50": "> 5000"}, {"smiles": "Cc1ccc(OCCN(C)C)cc1C(=O)NC1(c2cn(C)c3ccccc23)CC1", "note": "[Compound 354, 5-(2-(Dimethylamino)ethoxy)-2-methyl-N-(1-(1-methyl-1H-indol-3-yl)cyclopropyl)benzamide]", "IC50": "100 to 1000"}, {"smiles": "COc1ccc(OCCN(C)C)cc1C(=O)NC1(c2cccc3ccccc23)CC1", "note": "[Compound 303, 5-(2-(Dimethylamino)ethoxy)-2-methoxy-N-(1-(naphthalen-1-yl)cyclopropyl)benzamide]", "IC50": "> 5000"}, {"smiles": "Cc1ccc(OCCN(C)C)cc1C(=O)NC1(c2cccc3ccccc23)CC1", "note": "[Compound 214, 5-(2-(Dimethylamino)ethoxy)-2-methyl-N-(1-(naphthalen-1-yl)cyclopropyl)benzamide]", "IC50": "< 100"}, {"smiles": "c1ccc2c(C3(NCc4ccc5[nH]ncc5c4)CC3)cccc2c1", "note": "[Compound 178, N-((1H-indazol-5-yl)methyl)-1-(naphthalen-1-yl)cyclopropan-1-amine]", "IC50": "> 5000"}, {"smiles": "Cc1ccc(OC[C@H]2C[C@H](O)CN2)cc1C(=O)NC1(c2cccc3ccccc23)CC1", "note": "[Compound 414, 5-(((2R,4S)-4-Hydroxypyrrolidin-2-yl)methoxy)-2-methyl-N-(1-(naphthalen-1-yl)cyclopropyl)benzamide]", "IC50": "< 100"}, {"smiles": "Cc1ccc(NS(C)(=O)=O)cc1C(=O)N[C@H](C)c1cccc2ccccc12", "note": "[Compound 100, (R)-2-Methyl-5-(methylsulfonamido)-N-(1-(naphthalen-1-yl)ethyl)benzamide]", "IC50": "> 5000"}, {"smiles": "Cc1cc2cc(C(N)=O)[nH]c2cc1C(=O)NC1(c2cccc3ccccc23)CC1", "note": "[Compound 205]", "IC50": "100 to 1000"}, {"smiles": "COc1cc(C2(NC(=O)c3cc(OC[C@@H]4CCN4C)ccc3C)CC2)c2cccnc2c1", "note": "[Compound 527, (S)-N-(1-(7-Methoxyquinolin-5-yl)cyclopropyl)-2-methyl-5-((1-methylazetidin-2-yl)methoxy)benzamide]", "IC50": "< 100"}, {"smiles": "Cc1ccc(OC[C@@H]2CCN2C)cc1C(=O)NC1(c2cc(O)nc3ccccc23)CC1", "note": "[Compound 565, (S)-N-(1-(2-Hydroxyquinolin-4-yl)cyclopropyl)-2-methyl-5-((1-methylazetidin-2-yl)methoxy)benzamide]", "IC50": "< 100"}, {"smiles": "Cc1ccc(OCCN(C)C)cc1C(=O)NC1(c2cccc(Br)c2)CC1", "note": "[Compound 261, N-(1-(3-Bromophenyl)cyclopropyl)-5-(2-(dimethylamino)ethoxy)-2-methylbenzamide]", "IC50": "1000 to 5000"}, {"smiles": "Cc1ccc(OCCN(C)C)cc1C(=O)NC1(c2cccc(-c3ccccc3)c2C)CC1", "note": "[Compound 340, 5-(2-(Dimethylamino)ethoxy)-2-methyl-N-(1-(2-methyl-[1,1′-biphenyl]-3-yl)cyclopropyl)benzamide]", "IC50": "100 to 1000"}, {"smiles": "Cc1ccc(N)cc1C(=O)NS(=O)(=O)c1cccc2ccccc12", "note": "[Compound 242, 5-Amino-2-methyl-N-(naphthalen-1-ylsulfonyl)benzamide]", "IC50": "> 5000"}, {"smiles": "CC[S+]([O-])c1cc(C2(NC(=O)c3cc(OCCN(C)C)ccc3C)CC2)c2ccccc2c1", "note": "(stereo not drawn) [Compound 423, 5-(2-(Dimethylamino)ethoxy)-N-(1-(3-(ethylsulfinyl)naphthalen-1-yl)cyclopropyl)-2-methylbenzamide]", "IC50": "< 100"}]}]}
